{
  "source": "patent EP1369114A1",
  "about": "“Use of tryptophan metabolites as pharmaceutical agents” (Terness, Peter, Priv. Doz. Dr., priority 2002, dated 2003)",
  "tested_on": "T cells stimulated by allogeneic DCs",
  "test": "Allogeneic T-cell response: lymphocyte proliferation induced by allogeneic dendritic cells, 3[H]-thymidin incorporation",
  "type": "cell-based, human",
  "settings": "6 days",
  "text": "DCs were generated from CD14-positive blood monocytes as previously described (\"Schuler G. and N. Romani\", 1997, Adv. Exp. Med. Biol. 417:7-13). Briefly, peripheral blood mononuclear cells of an HLA-typed healthy donor were separated by density gradient centrifugation and CD14-positive monocytes were isolated by adherence to culture dishes. Non-adherent cells were discarded. After culture of monocytes in the presence of human rGM-CSF (666 Units/ml) and rIL-4 (1000 Units/ml) for 7 days, rTNF-α (10 ng/ml) was added for an additional 2 days to induce maturation of DC. Characterization of DC phenotype was performed by flow cytometry using the following mouse monoclonal antibodies: anti-CD 14-FITC, anti-HLA-DR-FITC, anti-CD 1a-PE, anti-CD86-PE, and anti-CD83-PE (BD Biosciences Heidelberg, Germany). DCs were kept in liquid nitrogen until use.\n• (a) Allogeneic T-cell response. DCs were infected with recombinant IDO-adeno-GFP (DC-IDO-GFP), IDO-adeno (DC-IDO) or with control adenoviruses (DC-adeno) at a MOI (multiplicity of infection) up to 500 for 2 days. […] After 5 days, ^3[H]-thymidin was added for 12hrs and the number of counts (counts per minute = cpm) determined in a (3-counter (Inotech Biosystems, Lansing, MI). In order to verify whether IDO expression or adenovirus infection harm the DCs, 10^5 cells were infected with IDO-adeno-GFP, IDO-adenovirus, or adenovirus only at a stepwise decreasing MOI (500, 250, 125, ........ 3.9) and cell viability was measured in FACS following double staining with 7-AAD and anti-CD83 antibody-PE. The percentage of dead cells never exceeded 30% for any MOI following IDO-adeno-GFP- or IDO-adeno-infection and 40% following adenovirus(control)-infection. […] After 2 days, cell proliferation was assessed by measuring ^3[H]-thymidin incorporation (cpm) as described. • (c) Tryptophan metabolite titration curves. […] After 2 days, ^3[H] thymidin was added and the number of counts recorded. […] After another 2 days, ^3[H] thymidin was added and cpm determined. […]",
  "data": [
    {"smiles": "Nc1ccccc1C(=O)CC(N)C(=O)O", "note": "(centres unmarked) [kynurenine]", "values": [
      {"measurement": "inhibition of proliferation of T cells stimulated by allogeneic DCs (in words)", "value": "completely inhibit the proliferation of T cells"},
      {"measurement": "IC50", "setting": "Homo sapiens, T-cell, 144 h, 3[H]-thymidin incorporation, read-out: 50% inhibition (I50) of proliferation of T cells stimulated by allogeneic DCs", "value": 157, "unit": "µM"}
    ]}
  ]
}
